Reference: patent publication US8399436B2, “N-pyrazolyl carboxamides as CRAC channel inhibitors” (Glaxo Group Limited, priority 2009, dated 2013)
Where a name gives a salt, the structure may show the parent alone.

Target: ICRAC current (calcium release activated calcium channel) (Homo sapiens, UniProt Q96D31)
Assay type: cell-based
Details: Jurkat E6-1 cells; at a final assay concentration of 15 μM
Method: This ICRAC assay uses the SERCA inhibitor thapsigargin to produce calcium depletion and activate an ICRAC current. […] Changes in intracellular calcium levels are determined by the inclusion of the calcium sensitive fluorescent dye Fluo-4 and the use of the FLIPR detection system. Inhibitors of ICRAC would be expected to decrease the calcium influx upon calcium add-back, thus reducing fluorescent signal.
Jurkat E6-1 is an established immortalised T lymphocyte cell line previously shown to express a functional ICRAC current. Jurkat cells grow in suspension, are cultured in DMEM+10% FBS, maintained in T175 flasks at 37° C./5% CO2, and are subcultured twice a week with either 1:10-1:20 splits. 1 confluent T175 yields 100 ml of approximately 2×10^6 cells/ml.
Loading buffer contains; NaCl 145 mM, KCl 2.5 mM, HEPES 10 mM, Glucose 10 mM, MgCl2 1.2 mM, made up with water, then pH adjusted to 7.4 using NaOH 1 M. Finally Fluo-4AM & brilliant black are added to give a final assay concentration of 2 μM and 250 μM respectively.
The required seeding density for a 384 plate is 20,000 cells per well. […] Plates are then transferred to the FLIPR which initially measures baseline fluorescence, followed by any increase in fluorescence evoked by the online addition of a 6 mM (1.2 mM FAC) calcium solution. […]

Sequence of ICRAC current (calcium release activated calcium channel) (Q96D31 whole entry): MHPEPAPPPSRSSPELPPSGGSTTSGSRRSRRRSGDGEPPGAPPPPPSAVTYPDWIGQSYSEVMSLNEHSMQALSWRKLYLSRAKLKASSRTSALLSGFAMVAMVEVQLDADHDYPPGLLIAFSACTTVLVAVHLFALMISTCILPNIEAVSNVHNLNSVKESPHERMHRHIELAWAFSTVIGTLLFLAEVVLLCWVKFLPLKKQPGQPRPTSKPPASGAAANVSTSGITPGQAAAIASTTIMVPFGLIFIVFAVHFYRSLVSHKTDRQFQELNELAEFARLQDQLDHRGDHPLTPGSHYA
Sequence of ICRAC current (calcium release activated calcium channel) (Q13586 23-685, further chain): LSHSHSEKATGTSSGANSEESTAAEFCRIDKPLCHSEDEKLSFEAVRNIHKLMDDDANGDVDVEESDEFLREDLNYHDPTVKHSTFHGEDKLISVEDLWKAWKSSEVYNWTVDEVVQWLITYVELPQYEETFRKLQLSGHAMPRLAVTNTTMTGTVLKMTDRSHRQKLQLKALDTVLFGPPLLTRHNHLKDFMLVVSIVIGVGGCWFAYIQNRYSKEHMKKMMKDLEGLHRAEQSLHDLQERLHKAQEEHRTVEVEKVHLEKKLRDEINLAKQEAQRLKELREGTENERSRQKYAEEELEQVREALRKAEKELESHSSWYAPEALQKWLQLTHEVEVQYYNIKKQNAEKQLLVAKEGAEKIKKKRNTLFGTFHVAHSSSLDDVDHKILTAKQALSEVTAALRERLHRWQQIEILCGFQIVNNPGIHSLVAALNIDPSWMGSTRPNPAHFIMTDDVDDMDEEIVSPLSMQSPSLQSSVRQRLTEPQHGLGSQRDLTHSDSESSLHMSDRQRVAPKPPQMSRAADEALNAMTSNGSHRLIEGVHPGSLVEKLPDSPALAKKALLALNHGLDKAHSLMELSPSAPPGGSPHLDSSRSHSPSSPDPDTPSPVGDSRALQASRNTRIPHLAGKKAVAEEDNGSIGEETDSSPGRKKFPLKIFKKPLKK

Row | SMILES | pIC50
1 | O=C(c1c(F)cccc1F)N(COP(=O)(O)O)c1ccn(Cc2c(F)cccc2C(F)(F)F)n1 [Example 187, [[(2,6-Difluorophenyl)carbonyl](1-{[2-fluoro-6-(trifluoromethyl)phenyl]methyl}-1H-pyrazol-3-yl)amino]methyl dihydrogen phosphate disodium salt] | < 4.8
2 | O=C(Nc1ccn(Cc2ccc(OP(=O)([O-])[O-])cc2C(F)(F)F)n1)c1c(F)cccc1F.[Na+].[Na+] [Example 186, 4-[(3-{[(2,6-Difluorophenyl)carbonyl]amino}-1H-pyrazol-1-yl)methyl]-3-(trifluoromethyl)phenyl dihydrogen phosphate disodium salt] | 4.9
